Reference: patent publication US9017730B2 (The Regents of the University of California, priority 2010, dated 2015)

Legend:
microbes = assay: in vitro antimicrobial activity, organism not given; format: cell-based; conditions: neutral pH (~7)
[1] = inflammation by histology in rodent infection model; format: in vivo, rats; conditions: rodent open wounds, copolypeptide in solution, versus control treatments
S. aureus 6538 [2] = assay: rodent model of prevention of wound infection (subcutaneous polypropylene mesh); conditions: solution
Description: (§2) In this model, a mesh pre-soaked with phosphate buffered saline (PBS) or K180L20 was inserted subcutaneously into the dorsal cervical region of Sprague-Dawley rats, followed by 10^6 S. aureus or P. aeruginosa. Additional PBS or K180L20 was added, wounds closed, and animals returned to cages for 48 hr.

S. aureus 6538 [3] = assay: porcine infection prevention open-wound model; conditions: solution (10 mg/mL) applied prior to inoculation
Description: Full-thickness 1 cm diameter wounds were made in the dorsal and lateral thorax of a 25-35 kg Yorkshire-cross pig. K180L20 hydrogel (or control buffer) was applied, and after four hr, wounds were inoculated with S. aureus. Wounds were assessed after 48 hr for bacterial counts by standard microbiology methods.

S. aureus = assay: in vitro antimicrobial activity, incubated with bacteria for 30 min prior to plating for growth; format: cell-based
Description: (§1) K180L20 was incubated with bacteria for 30 min prior to plating for growth;

S. epidermidis = assay: as above; format: cell-based; conditions: FIG. 4
Description: as §1

E. coli = assay: as above; format: cell-based
Description: as §1

P. aeruginosa = assay: as above; format: cell-based
Description: as §1

[4] = test system: P. aeruginosa (Clinical Pig Isolate); assay: rodent model of prevention of wound infection (subcutaneous polypropylene mesh); conditions: solution
Description: as §2

[5] = critical aggregation concentration (CAC) via pyrene fluorescence; format: physicochemical; conditions: in water
Description: Polypeptide solutions (2 mL) were dispersed in water at a range of concentrations (2.0×10^−3 to 2.0×10^−12 M). A stock pyrene solution was made by dissolving pyrene in acetone (6.0×10^−2 M). Next, an appropriate amount of the pyrene stock solution was added to give a final concentration of 12×10^−7 M in water and the acetone was evaporated off. To each polypeptide solution, 2.0 mL of the aqueous stock pyrene solution was added to afford a final concentration of 6.0×10^−7 M. Then, each solution was allowed to equilibrate overnight prior to measurements. To record fluorescence spectra, 3.0 mL of each polypeptide solution was added to a 4.0 mL polystyrene covet. The excitation spectra were recorded within a range of 300-360 nm at an emission wavelength of 390 nm. All spectra were run with an integration time of 1 sec/0.5 nm. The ratio of the intensities of two peaks I338/I333 was plotted as a function of polypeptide concentration (M) for each sample. The CACs were determined as the intersection of the extrapolated linear fits of the plot.

[6] = pig, in vivo
[7] = pig, in vivo; remark: listed apart in the source

| Substance | antimicrobial activity at neutral pH (microbes) | inflammation, histopathological evidence [1] | reduction in bacterial population, S. aureus (S. aureus 6538 [2]; 20 μg/ml of copolypeptide) | reduction in bacterial population, S. aureus (S. aureus 6538 [2]; 2 mg/ml) | prevention of microbial infection, S. aureus (S. aureus 6538 [3]) | reduction of bacteria, S. aureus (S. aureus; 10 μg/ml) | antimicrobial activity against S. aureus (S. aureus; FIG. 4) | antimicrobial activity against S. epidermidis (S. epidermidis) | reduction of bacteria, E. coli (E. coli; 10 μg/ml) | antimicrobial activity against E. coli (E. coli; FIG. 4) | reduction of bacteria, P. aeruginosa (P. aeruginosa; 10 μg/ml) | antimicrobial activity against P. aeruginosa (P. aeruginosa; FIG. 4) | reduction in bacterial population, P. aeruginosa ([4]; 20 μg/ml of copolypeptide) | reduction in bacterial population, P. aeruginosa ([4]; 2 mg/ml) | critical aggregation concentration (CAC) [5] [µM] | mononuclear inflammation, edema, or hemorrhage versus controls [6] | neutrophilic inflammation, severity versus controls [6] | serocellular exudates, severity versus controls [6] | inflammation, necrosis, and epithelial coverage versus control-treated wounds [7] |
| --- | --- | --- | --- | --- | --- | --- | --- | --- | --- | --- | --- | --- | --- | --- | --- | --- | --- | --- | --- |
| Poly(L-glutamate-Na)54-b-poly(rac-leucine)20 [E54(rac-L)20] | low antimicrobial activity |  |  |  |  |  |  |  |  |  |  |  |  |  |  |  |  |  |  |
| Poly(L-Lysine.HCl)55-b-poly(rac-Leucine)20 [K55(rac-L)20] |  | at or below the level of control treatments | 1-3 log | complete (or near complete) reduction | fully prevented microbial infection | reduction of bacteria | substantial antimicrobial activity | substantial antimicrobial activity | reduction of bacteria | substantial antimicrobial activity | reduction of bacteria | substantial antimicrobial activity | 1-3 log | complete (or near complete) reduction | 8.1 | No differences | minimally less severe | mildly | similar |
